From PubChem BioAssay (NCI) come the findings set out here.

Among the test systems are CAKI-1 renal; CCRF-CEM leukemia; HL-60(TB) leukemia; HOP-62 NSCLC; HOP-92 NSCLC; NCI-H460 lung; SF-539 CNS; SK-MEL-28 melanoma; SN12C renal; U251 CNS.
What all share (assay): DTP human tumour cell line panel, 48 h

The structures appear in SMILES notation. Several values for one entry are separate records, joined by “and”; a condition that tells them apart may be missing. Equal values may be shown once.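 Cells were grown in 96-well plates and exposed to each compound for 48 hours at five concentrations; endpoints were interpolated linearly between bracketing concentrations, or set to the highest concentration if not reached. At the GI50, growth is halved. TGI: concentration producing complete growth inhibition.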

Regarding `Cc1cc2c(cc1Cl)S/C(=C/C(=O)O)C(Nc1ccc3ncsc3c1)=NS2(=O)=O`, the GI50 in the experiment on CAKI-1 renal was 22.1 µM; in the experiment on CCRF-CEM leukemia it was 7.22 µM; in the experiment with HL-60(TB) leukemia, 9.16 µM; with HOP-62 NSCLC it was 17 µM; with HOP-92 NSCLC, 7.76 µM; in the experiment with NCI-H460 lung, 16.2 µM. In addition, the GI50 is 9.66 µM with SF-539 CNS, 32.4 µM with SK-MEL-28 melanoma, 16.5 µM in the experiment on SN12C renal and 28.6 µM in the experiment with U251 CNS. The TGI in the experiment on CAKI-1 renal was more than 48.9 µM; in the experiment on CCRF-CEM leukemia, more than 53.5 µM; in the experiment with HL-60(TB) leukemia it was more than 100 µM; in the experiment with HOP-62 NSCLC, more than 42.9 µM; in the experiment with HOP-92 NSCLC, 21.5 µM; with NCI-H460 lung it was more than 100 µM. The TGI with SF-539 CNS is more than 34.6 µM; in the experiment on SK-MEL-28 melanoma it was more than 60.6 µM; in the experiment on SN12C renal it was more than 64.8 µM; in the experiment on U251 CNS, more than 63.9 µM.

For the compound `COc1cc(/C=C/C(=O)/C=C/c2ccc(-n3ccnc3C)cc2)ccc1O`, the GI50 in the experiment with CAKI-1 renal is 3.06 µM; in the experiment on CCRF-CEM leukemia, 4.07 µM; in the experiment with HL-60(TB) leukemia it was 3.26 µM; with HOP-62 NSCLC, 3.18 µM; in the experiment with HOP-92 NSCLC it was 10.1 µM; in the experiment on NCI-H460 lung it was 15.4 µM. Also, the GI50 with SF-539 CNS is 2.19 µM; with SK-MEL-28 melanoma, 2.18 µM; in the experiment with SN12C renal, 2.36 µM; with U251 CNS it was 2.31 µM. For the same compound, the total growth inhibition concentration (TGI) was 10.9 µM in the experiment with CAKI-1 renal; more than 100 µM in the experiment on CCRF-CEM leukemia; 32.5 µM in the experiment with HL-60(TB) leukemia; 10.5 µM in the experiment with HOP-62 NSCLC; 45.6 µM in the experiment with HOP-92 NSCLC; 43.4 µM in the experiment on NCI-H460 lung. The TGI in the experiment on SF-539 CNS was 5.53 µM; in the experiment on SK-MEL-28 melanoma, 5 µM; in the experiment on SN12C renal it was 6.63 µM; in the experiment on U251 CNS, 6.4 µM.

With `CCc1cccc(C)c1NC(=O)C(=O)CC(=O)c1ccc(Cl)s1`, the TGI in the experiment on CAKI-1 renal, with CCRF-CEM leukemia, with HL-60(TB) leukemia, with HOP-62 NSCLC, with HOP-92 NSCLC and with NCI-H460 lung was more than 100 µM in each case. Besides, the TGI in the experiment with SF-539 CNS, in the experiment on SK-MEL-28 melanoma, with SN12C renal and in the experiment on U251 CNS was more than 100 µM in each case.

Take `CCOC(=O)Oc1cc2c(c(OC)c1OC)-c1ccc(OC)c(=O)cc1C(NC(C)=O)CC2` (stereo not given): the TGI was more than 100 µM with CAKI-1 renal; more than 21.5 µM in the experiment on CCRF-CEM leukemia; 0.0298 µM in the experiment on HL-60(TB) leukemia; more than 93.1 µM in the experiment on HOP-62 NSCLC; 28.7 µM with HOP-92 NSCLC; 6.67 µM with NCI-H460 lung. Besides, the TGI is 0.232 µM in the experiment with SF-539 CNS, more than 100 µM with SK-MEL-28 melanoma, more than 100 µM with SN12C renal and 8.56 µM with U251 CNS.

Take `CCN(Cc1ccccc1)C1CCN(Cc2cc(Br)ccc2O)CC1`: the GI50 is 57.9 µM in the experiment with CAKI-1 renal; 39.3 µM in the experiment with CCRF-CEM leukemia; 31.3 µM in the experiment on HL-60(TB) leukemia; more than 100 µM with HOP-62 NSCLC; 10.4 µM in the experiment with HOP-92 NSCLC; 58.2 µM in the experiment on NCI-H460 lung. In addition, the GI50 in the experiment with SF-539 CNS is 36.7 µM; in the experiment on SK-MEL-28 melanoma, 22 µM; in the experiment on SN12C renal it was 42.9 µM; with U251 CNS, 32.5 µM. Moreover, the TGI was more than 100 µM in the experiment on CAKI-1 renal; more than 100 µM with CCRF-CEM leukemia; 98.8 µM in the experiment on HL-60(TB) leukemia; more than 100 µM in the experiment with HOP-62 NSCLC; more than 100 µM with HOP-92 NSCLC; more than 100 µM with NCI-H460 lung. Further, the TGI in the experiment with SF-539 CNS is more than 100 µM; with SK-MEL-28 melanoma, 59.4 µM; in the experiment on SN12C renal, more than 100 µM; in the experiment with U251 CNS it was more than 100 µM.

With `CNC(=O)c1cc(Oc2ccc(NC(=O)Nc3ccc(Cl)c(C(F)(F)F)c3)c(F)c2)ccn1`, the GI50 in the experiment on CAKI-1 renal was 2.95 µM; in the experiment with CCRF-CEM leukemia it was 2.24 µM and 2.51 µM; in the experiment on HL-60(TB) leukemia, 0.518 µM and 0.539 µM; with HOP-62 NSCLC, 2.83 µM and 2.33 µM; in the experiment on HOP-92 NSCLC it was 0.822 µM and 0.74 µM; in the experiment with NCI-H460 lung, 2.67 µM and 2.86 µM. Further, the GI50 with SF-539 CNS is 2.15 µM and 1.45 µM; in the experiment on SK-MEL-28 melanoma, 1.57 µM and 1.3 µM; in the experiment with SN12C renal, 2.35 µM and 2.24 µM; with U251 CNS, 2.79 µM and 2.46 µM. Besides, the TGI is more than 30.4 µM in the experiment on CAKI-1 renal; 7.01 µM and 8.88 µM in the experiment with CCRF-CEM leukemia; 2.68 µM and 4.1 µM with HL-60(TB) leukemia; 14.5 µM and > 10 µM in the experiment with HOP-62 NSCLC; 5.55 µM and 5.15 µM with HOP-92 NSCLC; 9.42 µM and > 10 µM in the experiment with NCI-H460 lung. Also, the TGI in the experiment on SF-539 CNS is 10.7 µM and > 10 µM; in the experiment on SK-MEL-28 melanoma it was 6.28 µM and 8.13 µM; with SN12C renal, 12.1 µM and > 10 µM; in the experiment with U251 CNS, 11.3 µM and > 10 µM.

For `Cc1ccc(/C=N/Nc2nc(Nc3ccccc3)nc(-n3nc(C)cc3C)n2)cc1`, the GI50 with CAKI-1 renal is 2.56 µM; with CCRF-CEM leukemia it was 3.72 µM; in the experiment with HL-60(TB) leukemia it was 2.51 µM; in the experiment with HOP-62 NSCLC, 5.27 µM; in the experiment with HOP-92 NSCLC, 2.28 µM; in the experiment with NCI-H460 lung, 2.11 µM. For the same compound, the GI50 in the experiment on SF-539 CNS is 4.5 µM; with SK-MEL-28 melanoma, 6.12 µM; in the experiment with SN12C renal, 3.11 µM; with U251 CNS, 4.88 µM. For the same compound, the TGI with CAKI-1 renal was 9.45 µM; with CCRF-CEM leukemia it was more than 100 µM; in the experiment on HL-60(TB) leukemia, 84.8 µM; in the experiment with HOP-62 NSCLC it was 29.2 µM; in the experiment with HOP-92 NSCLC it was 10.9 µM; in the experiment on NCI-H460 lung it was 8.91 µM. Moreover, the TGI in the experiment with SF-539 CNS was 25.1 µM; in the experiment on SK-MEL-28 melanoma, more than 100 µM; in the experiment on SN12C renal, 92.4 µM; in the experiment on U251 CNS it was more than 100 µM.

As for `CCc1ccc(CCC(=O)Nc2ncc(Cc3ccc(Cl)cc3)s2)o1`, the GI50 in the experiment on CAKI-1 renal was 0.451 µM; in the experiment with CCRF-CEM leukemia, 0.352 µM; in the experiment on HL-60(TB) leukemia, 0.289 µM; in the experiment on HOP-62 NSCLC it was 0.623 µM; with HOP-92 NSCLC, 4.61 µM; in the experiment on NCI-H460 lung, 0.335 µM. Besides, the GI50 was 0.245 µM with SF-539 CNS, 4.27 µM with SK-MEL-28 melanoma, 0.753 µM with SN12C renal and 0.371 µM in the experiment with U251 CNS. The TGI is more than 100 µM in the experiment with CAKI-1 renal; more than 100 µM with CCRF-CEM leukemia; 1.93 µM in the experiment with HL-60(TB) leukemia; more than 100 µM with HOP-62 NSCLC; more than 100 µM with HOP-92 NSCLC; more than 100 µM with NCI-H460 lung. Further, the TGI was 0.727 µM in the experiment on SF-539 CNS, more than 100 µM in the experiment on SK-MEL-28 melanoma, more than 100 µM in the experiment on SN12C renal and more than 100 µM in the experiment with U251 CNS.

Usually GI50 stands for the concentration giving 50% growth inhibition. The term TGI denotes the concentration at which net growth stops.
